# Data from patent US9884868B2, “TGF-beta inhibitors” (Rigel Pharmaceuticals, Inc., priority 2015, dated 2018).
# Target: HIS-TGF-βR1 T204D (Homo sapiens (Human), UniProt P36897, T204D)
# Assay: HTRF probe displacement assay with HIS-TGF-βR1 T204D
# Conditions: read-out: TGFbr1 IC50; HTRF probe displacement, 1 nM HIS-TGF-βR1 T204D, 1 hour at room temperature
# Sequence of HIS-TGF-βR1 T204D (P36897 34-503 T204D): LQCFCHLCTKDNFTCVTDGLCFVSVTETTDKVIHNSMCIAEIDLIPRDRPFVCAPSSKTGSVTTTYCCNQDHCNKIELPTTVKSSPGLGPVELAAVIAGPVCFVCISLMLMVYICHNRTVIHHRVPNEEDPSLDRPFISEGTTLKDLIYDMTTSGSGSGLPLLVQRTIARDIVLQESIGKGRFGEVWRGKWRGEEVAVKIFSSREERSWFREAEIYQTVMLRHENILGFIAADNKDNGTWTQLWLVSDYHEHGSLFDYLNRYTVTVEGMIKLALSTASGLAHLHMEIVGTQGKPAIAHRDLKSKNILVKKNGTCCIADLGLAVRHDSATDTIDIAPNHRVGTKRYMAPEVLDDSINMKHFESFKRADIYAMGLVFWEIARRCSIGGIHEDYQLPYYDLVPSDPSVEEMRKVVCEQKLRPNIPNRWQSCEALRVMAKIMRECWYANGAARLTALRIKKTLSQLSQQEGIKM
row,SMILES,IC50
1,"CC(C)(O)Cn1cnc(-c2ccc(F)cc2)c1-c1ccc2ncc(C(N)=O)n2c1 [166′, 6-(4-(4-fluorophenyl)-1-(2-hydroxy-2-methylpropyl)-1H-imidazol-5-yl)imidazo[1,2-a]pyridine-3-carboxamide]",9.1 nM
2,"CCn1cnc(-c2ccc(F)c(Cl)c2)c1-c1ccc2ncc(C(N)=O)n2n1 [117′, 6-(4-(3-chloro-4-fluorophenyl)-1-ethyl-1H-imidazol-5-yl)imidazo[1,2-b]pyridazine-3-carboxamide]",0.6 nM
3,"CCC(CO)n1cnc(-c2ccc(F)cc2)c1-c1ccc2ncc(C(N)=O)n2c1 (stereo not shown) [179′, 6-(4-(4-fluorophenyl)-1-(1-hydroxybutan-2-yl)-1H-imidazol-5-yl)imidazo[1,2-a]pyridine-3-carboxamide]",2.2 nM
4,"C[C@@H](O)Cn1cnc(-c2ccc(F)cc2)c1-c1ccc2ncc(C#N)n2c1 [68′, (R)-6-(4-(4-fluorophenyl)-1-(2-hydroxypropyl)-1H-imidazol-5-yl)imidazo[1,2-a]pyridine-3-carbonitrile]",301 nM
5,"N#Cc1cnc2ccc(-c3c(-c4ccc(F)c(Cl)c4)ncn3CC(F)F)nn12 [33′, 6-(4-(3-chloro-4-fluorophenyl)-1-(2,2-difluoroethyl)-1H-imidazol-5-yl)imidazo[1,2-b]pyridazine-3-carbonitrile]",1 nM
6,"CCCn1cnc(-c2ccc(F)cc2)c1-c1ccc2ncc(C#N)n2c1 [87′, 6-(4-(4-fluorophenyl)-1-propyl-1H-imidazol-5-yl)imidazo[1,2-a]pyridine-3-carbonitrile]",40.3 nM
7,"CCC(C)n1cnc(-c2ccc(F)cc2)c1-c1ccc2ncc(C#N)n2c1 (stereo not shown) [67′, 6-(1-(sec-butyl)-4-(4-fluorophenyl)-1H-imidazol-5-yl)imidazo[1,2-a]pyridine-3-carbonitrile]",55.8 nM
8,"NC(=O)c1cnc2ccc(-c3c(-c4ccc(F)cc4)ncn3C(CO)CO)nn12 [129′, 6-(1-(1,3-dihydroxypropan-2-yl)-4-(4-fluorophenyl)-1H-imidazol-5-yl)imidazo[1,2-b]pyridazine-3-carboxamide]",5.1 nM
9,"CNC(=O)c1cnc2ccc(-c3c(-c4ccc(F)cc4)ncn3CC(F)F)nn12 [206′, 6-(1-(2,2-difluoroethyl)-4-(4-fluorophenyl)-1H-imidazol-5-yl)-N-methylimidazo[1,2-b]pyridazine-3-carboxamide]",0.9 nM
10,"N#Cc1cnc2ccc(-c3c(-c4ccc(F)cc4)ncn3C3CCC(F)(F)C3)nn12 (stereo not shown) [5′, 6-(1-(3,3-difluorocyclopentyl)-4-(4-fluorophenyl)-1H-imidazol-5-yl)imidazo[1,2-b]pyridazine-3-carbonitrile]",5.5 nM
11,"NC(=O)c1cnc2ccc(-c3c(-c4ccc(F)cc4)ncn3C3COC3)nn12 [126′, 6-(4-(4-fluorophenyl)-1-(oxetan-3-yl)-1H-imidazol-5-yl)imidazo[1,2-b]pyridazine-3-carboxamide]",7.4 nM
12,"CC(F)(F)Cn1cnc(-c2ccc(F)cc2)c1-c1ccc2ncc(C(N)=O)n2n1 [137′, 6-(1-(2,2-difluoropropyl)-4-(4-fluorophenyl)-1H-imidazol-5-yl)imidazo[1,2-b]pyridazine-3-carboxamide]",0.6 nM
13,CC(C)(O)c1cnc2ccc(-c3c(-c4ccc(F)cc4)ncn3CC(F)F)cn12 [Example 278′],184 nM
14,"N#Cc1cnc2ccc(-c3c(-c4ccc(F)c(Cl)c4)ncn3CCO)cn12 [100′, 6-(4-(3-chloro-4-fluorophenyl)-1-(2-hydroxyethyl)-1H-imidazol-5-yl)imidazo[1,2-a]pyridine-3-carbonitrile]",11.6 nM
15,"N#Cc1cnc2ccc(-c3c(-c4ccc(F)c(Cl)c4)ncn3C3COC3)cn12 [97′, 6-(4-(3-chloro-4-fluorophenyl)-1-(oxetan-3-yl)-1H-imidazol-5-yl)imidazo[1,2-a]pyridine-3-carbonitrile]",140 nM
16,"N#Cc1cnc2ccc(-c3c(-c4ccc(F)cc4)ncn3CCCO)nn12 [15′, 6-(4-(4-fluorophenyl)-1-(3-hydroxypropyl)-1H-imidazol-5-yl)imidazo[1,2-b]pyridazine-3-carbonitrile]",2 nM
17,"CC(C)n1cnc(-c2ccc(F)cc2)c1-c1ccc2ncc(C(N)=O)n2n1 [135′, 6-(4-(4-fluorophenyl)-1-isopropyl-1H-imidazol-5-yl)imidazo[1,2-b]pyridazine-3-carboxamide]",0.7 nM
18,"NNC(=O)c1cnc2ccc(-c3c(-c4ccc(F)cc4)ncn3CC(F)F)nn12 [Example 205′, 6-(1-(2,2-difluoroethyl)-4-(4-fluorophenyl)-1H-imidazol-5-yl)imidazo[1,2-b]pyridazine-3-carbohydrazide]",1.8 nM
19,"CCC(CC)n1cnc(-c2ccc(F)cc2)c1-c1ccc2ncc(C#N)n2c1 [74′, 6-(4-(4-fluorophenyl)-1-(pentan-3-yl)-1H-imidazol-5-yl)imidazo[1,2-c]pyridine-3-carbonitrile]",152 nM
20,"CC1(Cn2cnc(-c3ccc(F)c(Cl)c3)c2-c2ccc3ncc(C#N)n3n2)COC1 [45′, 6-(4-(3-chloro-4-fluorophenyl)-1-((3-methyloxetan-3-yl)methyl)-1H-imidazol-5-yl)imidazo[1,2-b]pyridazine-3-carbonitrile]",2.3 nM
21,"N#Cc1cnc2ccc(-c3c(-c4ccc(F)c(Cl)c4)ncn3CC3CC3)cn12 [96′, 6-(4-(3-chloro-4-fluorophenyl)-1-(cyclopropylmethyl)-1H-imidazol-5-yl)imidazo[1,2-a]pyridine-3-carbonitrile]",94.4 nM
22,"OCc1cnc2ccc(-c3c(-c4ccc(F)cc4)ncn3CC(F)F)nn12 [Example 210′, (6-(1-(2,2-difluoroethyl)-4-(4-fluorophenyl)-1H-imidazol-5-yl)imidazo[1,2-b]pyridazin-3-yl)methanol]",2.2 nM
23,"N#Cc1cnc2ccc(-c3c(-c4ccc(F)c(Cl)c4)ncn3CCF)nn12 [34′, 6-(4-(3-chloro-4-fluorophenyl)-1-(2-fluoroethyl)-1H-imidazol-5-yl)imidazo[1,2-b]pyridazine-3-carbonitrile]",0.9 nM
24,"NC(=O)c1cnc2ccc(-c3c(-c4ccc(F)cc4)ncn3C3COC3)cn12 [173′, 6-(4-(4-fluorophenyl)-1-(oxetan-3-yl)-1H-imidazol-5-yl)imidazo[1,2-a]pyridine-3-carboxamide]",6.6 nM
25,"CC(C)OCCn1cnc(-c2ccc(F)cc2)c1-c1ccc2ncc(C#N)n2n1 [11′, 6-(4-(4-fluorophenyl)-1-(2-isopropoxyethyl)-1H-imidazol-5-yl)imidazo[1,2-b]pyridazine-3-carbonitrile]",3 nM
26,"CC[C@@H](CO)n1cnc(-c2ccc(F)cc2)c1-c1ccc2ncc(C(N)=O)n2n1 [125′, (S)-6-(4-(4-fluorophenyl)-1-(1-hydroxybutan-2-yl)-1H-imidazol-5-yl)imidazo[1,2-b]pyridazine-3-carboxamide]",2.6 nM
27,"CC[C@@H](CF)n1cnc(-c2ccc(F)cc2)c1-c1ccc2ncc(C#N)n2n1 [Example 103′, (S)-6-(1-(1-fluorobutan-2-yl)-4-(4-fluorophenyl)-1H-imidazol-5-yl)imidazo[1,2-b]pyridazine-3-carbonitrile]",1.8 nM
28,"CCn1cnc(-c2ccc(F)cc2)c1-c1ccc2ncc(C(N)=O)n2c1 [160′, 6-(1-ethyl-4-(4-fluorophenyl)-1H-imidazol-5-yl)imidazo[1,2-a]pyridine-3-carboxamide]",0.8 nM
